ChEMBL document CHEMBL5303573, “Mapping human microbiome drug metabolism by gut bacteria and their genes” (Nature, 2019)

Legend:
Assay type in all cases: ADME
Parameters in all cases: dose 2 uM
Conditions in all cases: 2 µM
[1] = molecular target: T1, 3-oxo-5-alpha-steroid 4-dehydrogenase (Bacteroides thetaiotaomicron, UniProt Q8A618); assay: (§1) The drug is tested on Bacteroides thetaiotaomicron strain: VPI-5482 for biotransformation. The drug concentrations were measured before and after a 12-h incubation by liquid-chromatography-coupled mass spectrometry (LC–MS)
T1 sequence (Q8A618 whole entry): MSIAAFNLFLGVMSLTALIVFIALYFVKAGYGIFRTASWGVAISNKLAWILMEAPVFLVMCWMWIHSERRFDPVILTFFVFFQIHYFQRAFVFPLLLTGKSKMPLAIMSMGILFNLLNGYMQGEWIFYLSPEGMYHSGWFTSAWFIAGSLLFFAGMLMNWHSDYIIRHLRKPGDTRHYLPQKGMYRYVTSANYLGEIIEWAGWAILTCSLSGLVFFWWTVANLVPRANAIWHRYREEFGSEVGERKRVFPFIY

[2] = molecular target: T2, Acetyl esterase (Acetylxylosidase) (Bacteroides thetaiotaomicron, UniProt Q8ABF8); assay: as §1
T2 sequence (Q8ABF8 whole entry): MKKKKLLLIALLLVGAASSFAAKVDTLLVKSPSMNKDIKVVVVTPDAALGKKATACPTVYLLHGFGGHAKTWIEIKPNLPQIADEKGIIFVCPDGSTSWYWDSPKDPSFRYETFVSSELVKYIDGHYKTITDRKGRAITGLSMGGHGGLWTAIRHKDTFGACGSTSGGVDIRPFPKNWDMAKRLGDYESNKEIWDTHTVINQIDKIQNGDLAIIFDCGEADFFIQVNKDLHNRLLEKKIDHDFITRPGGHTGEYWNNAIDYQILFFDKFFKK

Endoglucanase E (EGE) = molecular target: T3, Endoglucanase E (EGE) (Bacteroides thetaiotaomicron, UniProt Q8AAL9); assay: as §1
T3 sequence (Q8AAL9 whole entry): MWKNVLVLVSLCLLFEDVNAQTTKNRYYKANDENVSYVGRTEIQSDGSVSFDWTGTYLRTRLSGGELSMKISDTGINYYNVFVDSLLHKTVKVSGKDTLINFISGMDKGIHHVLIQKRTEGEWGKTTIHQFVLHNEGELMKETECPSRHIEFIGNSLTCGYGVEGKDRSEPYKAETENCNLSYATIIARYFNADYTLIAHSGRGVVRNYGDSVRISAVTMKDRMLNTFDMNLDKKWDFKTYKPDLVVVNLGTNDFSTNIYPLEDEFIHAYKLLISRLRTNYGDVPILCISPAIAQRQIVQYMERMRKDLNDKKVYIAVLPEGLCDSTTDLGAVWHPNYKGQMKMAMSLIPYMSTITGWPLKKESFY

General stress protein = General stress protein (Bacteroides thetaiotaomicron, UniProt Q8A7U5); assay: as §1
Lipase = molecular target: T4, Lipase (Bacteroides thetaiotaomicron, UniProt Q8A3J3); assay: as §1
T4 sequence (Q8A3J3 whole entry): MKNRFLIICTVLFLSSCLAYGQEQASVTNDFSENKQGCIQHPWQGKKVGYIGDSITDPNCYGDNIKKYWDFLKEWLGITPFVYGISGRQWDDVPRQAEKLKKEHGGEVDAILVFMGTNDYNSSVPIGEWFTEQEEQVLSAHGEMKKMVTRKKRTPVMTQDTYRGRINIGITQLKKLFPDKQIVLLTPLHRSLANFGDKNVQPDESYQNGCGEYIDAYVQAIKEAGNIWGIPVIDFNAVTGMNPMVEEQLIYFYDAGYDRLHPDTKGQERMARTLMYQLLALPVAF

Lipoprotein = molecular target: T5, Lipoprotein (Bacteroides thetaiotaomicron, UniProt Q8A343); assay: as §1
T5 sequence (Q8A343 whole entry): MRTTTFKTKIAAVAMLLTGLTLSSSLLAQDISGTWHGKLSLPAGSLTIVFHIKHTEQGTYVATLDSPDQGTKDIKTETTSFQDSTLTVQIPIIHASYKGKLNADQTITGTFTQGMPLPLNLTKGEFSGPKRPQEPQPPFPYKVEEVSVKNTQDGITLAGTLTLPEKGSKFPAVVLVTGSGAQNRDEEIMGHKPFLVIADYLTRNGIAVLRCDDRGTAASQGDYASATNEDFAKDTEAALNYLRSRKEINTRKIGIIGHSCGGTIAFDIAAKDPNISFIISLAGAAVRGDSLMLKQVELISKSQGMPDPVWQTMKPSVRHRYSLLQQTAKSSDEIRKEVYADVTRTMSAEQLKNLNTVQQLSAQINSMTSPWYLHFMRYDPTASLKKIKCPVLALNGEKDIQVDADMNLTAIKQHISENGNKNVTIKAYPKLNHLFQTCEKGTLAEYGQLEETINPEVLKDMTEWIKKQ

Regulatory protein = molecular target: T6, Regulatory protein (Bacteroides thetaiotaomicron, UniProt Q8A576); assay: as §1
T6 sequence (Q8A576 whole entry): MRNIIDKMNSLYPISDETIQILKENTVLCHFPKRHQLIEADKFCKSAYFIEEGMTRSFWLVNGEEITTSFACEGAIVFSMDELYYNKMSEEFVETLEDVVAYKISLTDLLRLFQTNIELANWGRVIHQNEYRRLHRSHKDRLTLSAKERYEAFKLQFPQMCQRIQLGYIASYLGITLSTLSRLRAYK

Esterase = molecular target: T7, Esterase (Phocaeicola dorei, UniProt B6W2J6); assay: (§2) The drug is tested on Bacteroides dorei strain: DSM17855 for biotransformation. The drug concentrations were measured before and after a 12-h incubation by liquid-chromatography-coupled mass spectrometry (LC–MS)
T7 sequence (B6W2J6 whole entry): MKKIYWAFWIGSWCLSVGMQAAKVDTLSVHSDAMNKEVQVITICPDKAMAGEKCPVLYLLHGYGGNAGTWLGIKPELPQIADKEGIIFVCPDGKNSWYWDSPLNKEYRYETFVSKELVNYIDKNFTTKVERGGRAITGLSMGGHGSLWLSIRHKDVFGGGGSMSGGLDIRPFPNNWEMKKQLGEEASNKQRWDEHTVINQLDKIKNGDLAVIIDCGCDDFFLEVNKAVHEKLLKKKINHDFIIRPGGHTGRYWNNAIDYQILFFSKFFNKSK

[3] = molecular target: T8, Nitroreductase domain-containing protein (Phocaeicola dorei, UniProt B6W3P3); assay: as §2
T8 sequence (B6W3P3 whole entry): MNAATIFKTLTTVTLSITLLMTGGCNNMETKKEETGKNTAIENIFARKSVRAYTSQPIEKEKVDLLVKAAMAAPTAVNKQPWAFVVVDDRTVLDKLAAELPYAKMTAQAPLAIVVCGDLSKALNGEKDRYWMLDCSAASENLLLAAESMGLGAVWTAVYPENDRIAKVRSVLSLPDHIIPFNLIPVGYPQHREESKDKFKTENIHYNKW

[4] = molecular target: T9, SGNH hydrolase-type esterase domain-containing protein (Phocaeicola dorei, UniProt B6W1J1); assay: as §2
T9 sequence (B6W1J1 whole entry): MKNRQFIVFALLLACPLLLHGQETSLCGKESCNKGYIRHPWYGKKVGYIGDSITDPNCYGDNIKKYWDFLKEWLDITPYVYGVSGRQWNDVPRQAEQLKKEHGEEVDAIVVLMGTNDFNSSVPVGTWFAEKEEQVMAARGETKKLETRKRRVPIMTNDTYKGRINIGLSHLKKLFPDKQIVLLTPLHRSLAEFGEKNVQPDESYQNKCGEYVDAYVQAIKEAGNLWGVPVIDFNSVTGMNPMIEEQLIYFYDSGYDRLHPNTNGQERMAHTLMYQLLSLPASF

Measured: Bacterial Biotransformation

General stress protein, sequence (Q8A7U5 1-138, change not shown): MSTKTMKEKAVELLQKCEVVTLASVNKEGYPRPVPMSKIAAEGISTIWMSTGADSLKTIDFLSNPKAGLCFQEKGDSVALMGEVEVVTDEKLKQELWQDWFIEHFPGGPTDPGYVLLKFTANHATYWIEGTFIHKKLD

C[C@]12CCC(=O)C=C1[C@@H]1C[C@@H]1[C@H]1[C@@H]3[C@@H]4C[C@@H]4[C@@]4(CCC(=O)O4)[C@@]3(C)CC[C@@H]12 [DROSPIRENONE]
Compound NOT metabolized: all assays above
